Reference: publication PMC8700061, “Fragment-Sized and Bidentate (Immuno)Proteasome Inhibitors Derived from Cysteine and Threonine Targeting Warheads” (Cells, 2021)

Key:
[1] = HPLC-based stability assay in PBS; assay type: physicochemical; conditions: PBS pH 7.4
Procedure: (§1) GSH reactivity assay was performed as described by Petri et al.; 500 μM solution of compound (PBS buffer pH 7.4, 10% MeCN, 250 μL) with 200 μM solution of indoprofen as internal standard were added to 10 mM GSH solution (dissolved in PBS buffer, 250 μL) in a 1:1 ratio. The final concentration was 250 μM compound, 100 μM indoprofen, 5 mM GSH and 5% MeCN (500 μL). The final mixture was analyzed by HPLC after 0, 1, 2, 4, 8, 12, 24, 48, and 72 h. The degradation kinetics were also studied using the method described in [24], except that pure PBS buffer was used instead of GSH solution. In this experiment, the final concentration of the mixture was 250 μM fragment, 100 μM indoprofen and 5% MeCN. The area under the curve (AUC) values were determined by integrating the HPLC spectra and then corrected with the internal standard.

GSH = experiment: HPLC-based GSH reactivity assay; assay type: physicochemical; conditions: 5 mM glutathione (GSH) in PBS buffer; 250 µM compound, 5 mM GSH, PBS pH 7.4; read-out: Reactivity with GSH (HPLC-based assay), t1/2
Procedure: as §1, with “The final concentration was 250 μM compound, 100 μM indoprofen, 5 mM GSH and 5% MeCN (500 μL).” left out, “In this experiment, the final concentration of the mixture was 250 μM fragment, 100 μM indoprofen and 5% MeCN.” left out

| Structure (SMILES) | Stability in Buffer (HPLC-based assay) [1] | half-life at 250 µM (GSH) |
| --- | --- | --- |
| COc1cccc2oc(C#N)nc12 [Compound 6] | stable ^c,d | < 3 min |
| CC(C)C[C@H](NC(=O)CCn1c(C#N)nc2ccccc21)B1O[C@@H]2C[C@@H]3C[C@@H](C3(C)C)[C@]2(C)O1 [Compound 30] | stable ^b,c |  |
| CC(C)C[C@H](NC(=O)CCCn1c(C#N)nc2ccccc21)B1O[C@@H]2C[C@@H]3C[C@@H](C3(C)C)[C@]2(C)O1 [Compound 31] | stable ^b,c |  |
| CC(C)C[C@H](NC(=O)CCn1c(C#N)nc2cccc(Cl)c21)B1O[C@@H]2C[C@@H]3C[C@@H](C3(C)C)[C@]2(C)O1 [Compound 38] | stable ^b,c |  |
| CC(C)C[C@H](NC(=O)Cc1ccc2oc(C#N)nc2c1)B1O[C@@H]2C[C@@H]3C[C@@H](C3(C)C)[C@]2(C)O1 [Compound 39] | stable ^b,c | 3 to 60 min |
